From patent EP3727588B1, “ACTIVATOR PEPTIDES OF THE ENZYME ADAM 10 AND RELATED USES IN THE TREATMENT OF ALZHEIMER'S DISEASE” (UNIVERSITA' DEGLI STUDI DI MILANO, priority 2017, dated 2019)
“And” between values parts separate entries of the source, which are not always exact repeats. Equal entries are not always repeated. Peptide text beside a SMILES is read from it.

Legend:
[1] = system: dendritic spines of the hippocampal neurons; experiment: dendritic spine morphology and density in hippocampus, C57BL/6 mice; format: in vivo; conditions: 14 days' treatment
Experimental: (§1) C57/BL6 adult mice were treated for 14 days with daily intraperitoneal injection of saline solution or peptides at a dose of 3 nmol/g (6-10 animals per experimental group). The animals were maintained in an enclosure at 25 ± 2 °C with an alternating light/dark cycle of 12 hours and had free access to water and food in the form of pellets (standard diet).
For the dendritic spine analysis, the protocol used is the one previously described by Kim et al, and envisages the use of DilDye lipophilic tracer (Invitrogen) to allow the dendritic spines to be viewed under the confocal microscope. The analysis of the dimensions and morphology of the spines was performed with ImageJ software.
The spines were classified, based on their morphology, into three different categories: thin, stubby (without a well-defined "neck") and mushroom shaped. To evaluate the possible effect induced by PEP3 on the spine morphology, two animals for each experimental group were perfused after 14 days of treatment and the brain was post-fixed in PFA and cut with a vibratome. To view the dendritic spines the lipophilic tracer DilDye was used. From the images acquired from the confocal microscope the number, length and width of the head of the dendritic spines of the hippocampal neurons were measured.

[2] = leukogram (white blood cell count) after 14 days' treatment; format: in vivo, mice
Experimental: as §1
(§2) The blood, collected through cardiac puncture, was analysed with a laser counter (ADVIA 120, Siemens) using specific software for the murine species. From each sample a blood smear was prepared, stained with the May Grünwald-Giemsa method, and used for the morphological analysis of the leukocytes, the red blood cells and the platelet estimate. After the automatic counting of the cells and the preparation of the smear, all the samples were centrifuged and the plasma was transferred into separate test tubes. The analysis of the plasma samples was performed through automatic spectrophotometer (ILAB-300, Instrumentation Laboratory). All the results were compared with the values provided by the company Charles River for mice of the same strain and age.
Except for the basophils and eosinophils, the total count and white blood cell (WBC) differential is lower with respect to the range values in all the animals treated. However, we noticed that the reference range values provided by the company Charles River are particularly high with respect to other values provided for other control groups and in other scientific articles in which the same animal strain is analysed. Justification for these differences found is provided by the pre-analytical factors used by Charles River in determining the different reference ranges (such as the method used, the type of sampling used, etc.). Despite this, the analyses of the data performed both individually and by examining the mean and median values in the different groups, show some differences in the values referring to mice treated with the active peptide with respect to the control mice (Table 2).
The following Table 2 illustrates the results of the white blood cell count. The reference values are provided by Charles River for C57BL mice of 56-70 days.

[3] = blood count and platelet count after 14 days' treatment; format: in vivo, mice; design: key to Aggregate s: +, ++, +++ considering the presence of platelet aggregates detected in the blood smear that make the analysis difficult; +, ++, +++ considering the presence of platelet aggregates detected in the blood smear that make the analysis difficult; +, ++, +++ considering the presence of platelet aggregates detected in the blood smear that make the analysis difficult; key to Estimate Plt: A= appropriate platelet estimate
Experimental: as §1, §2
The range values are provided by Charles River for C57BL mice aged between 56-70 days, whose blood was collected by cardiac puncture after euthanasia.

[4] = Novel Object Recognition Test (NORT), C57BL/6 mice; format: in vivo; conditions: 14 days' treatment
Experimental: as §1
After 14 days of treatment the animals were subjected to the Novel Object Recognition Test (NORT). Such test is structured in three phases: habituation, familiarization and testing. In the first phase, the animal is placed in an empty arena and left free to explore the environment for 5 minutes. The day after, during the familiarization phase, the animal is placed in the same arena in the presence of two objects, identical in shape and size, for 10 minutes. Then the time spent by the animal exploring the individual object is recorded. On the third day, the animal is placed in the area in the presence of an identical object to that used in the familiarization phase and a new one. In this phase the difference in time spent by the animal exploring the familiar object and the new object is evaluated. […] In both phases of the test, the objects are positioned symmetrically and opposite inside the arena, and all the sessions are recorded with the aid of a video camera. […]

[5] = body weight and food intake during 14 days' treatment; format: in vivo; conditions: C57BL/6 mice, daily intraperitoneal 3 nmol/g
Experimental: as §1
For the entire duration of the treatment, on a daily basis, the weight and food intake of each animal were monitored and recorded, in order to evaluate any changes caused by the treatment. 24 hours after the last injection the mice were anaesthetized, and then the blood was taken through cardiac puncture, whereas the brain and liver of the animal were rapidly dissected to perform biochemical or immunohistological analyses.
The body weight and food intake were monitored and recorded on a daily basis.

[6] = system: GFAP and Iba-1 positive cells; experiment: neuro-inflammation: GFAP and Iba-1 positive cells in hippocampus; format: in vivo, mice; conditions: 5 fields, 14 days' treatment
Experimental: as §1
After the sacrifice of the treated animal, a portion of liver and a brain hemisphere were fixed in 10% formalin for 48 hours, and included in paraffin. From each block of paraffin, serial sections 5/6µm thick were obtained. The sections were then stained with haematoxylin-eosin or processed through immunohistochemistry.
Subsequently, to evaluate the presence of neuro-inflammation, 5 different fields of the hippocampus were considered to verify any presence of GFAP and Iba-1 positive cells.

[7] = individual animal, 14 days, daily intraperitoneal 3 nmol/g

N=C(N)NCCC[C@H](NC(=O)CNC(=O)[C@@H](N)Cc1ccc(O)cc1)C(=O)N[C@@H](CCCCN)C(=O)N[C@@H](CCCCN)C(=O)N[C@@H](CCCNC(=N)N)C(=O)N[C@@H](CCCNC(=N)N)C(=O)N[C@@H](CCC(N)=O)C(=O)N[C@@H](CCCNC(=N)N)C(=O)N[C@@H](CCCNC(=N)N)C(=O)N[C@@H](CCCNC(=N)N)C(=O)NCC(=O)NCC(=O)N[C@@H](CO)C(=O)NCC(=O)N[C@@H](CCC(N)=O)C(=O)N1CCC[C@H]1C(=O)N1CCC[C@H]1C(=O)N[C@@H](CCC(=O)O)C(=O)N[C@@H](CCC(N)=O)C(=O)N[C@@H](CCC(=O)O)C(=O)N1CCC[C@H]1C(=O)N[C@@H](CCCNC(=N)N)C(=O)NCC(=O)O [inPEP3, reference compound] (H-YGRKKRRQRRRGGSGQPPEQEPRG-OH)
density of the dendritic spines [1]: 10.15±1.05 n. of spines/10µm | length of mushroom shaped spines [1]: 0.85±0.04 | length of the spines [1]: 0.83±0.02 µm | percentage of mushroom shaped spines [1]: 30.81 ± 1.78% | percentage of stubby spines [1]: 42.78 ± 1.86% | percentage of thin spines [1]: 26.41 ± 1.42% | width of the head of spines [1]: 0.79±0.02 µm | Basophils ([2]; group mean): 0 µL⁻¹ | Eosinophils ([2]; group mean): 39.9 µL⁻¹ | Lymphocytes ([2]; group mean): 1935.9 µL⁻¹ | Monocytes ([2]; group mean): 137.1 µL⁻¹ | Neutrophils ([2]; group mean): 990.5 µL⁻¹ | White blood cells ([2]; group mean): 3103.3 µL⁻¹ | Basophils ([2]; group median): 0 µL⁻¹ | Eosinophils ([2]; group median): (-0.0378). x10^3/µL | Lymphocytes ([2]; group median): (-1.837). x10^3/µL | Monocytes ([2]; group median): (-0.0918). x10^3/µL | Neutrophils ([2]; group median): (-0.2468). x10^3/µL | White blood cells ([2]; group median): (-2.295). x10^3/µL | Basophils [2, 7]: 0 µL⁻¹ | Eosinophils [2, 7]: 26.1 µL⁻¹ and 31 µL⁻¹ and 44.8 µL⁻¹ and 62 µL⁻¹ and 36 µL⁻¹ and 39.6 µL⁻¹ | Lymphocytes [2, 7]: 2218.5 µL⁻¹ and 1271 µL⁻¹ and 1971.2 µL⁻¹ and 2976 µL⁻¹ and 1476 µL⁻¹ and 1702.8 µL⁻¹ | Monocytes [2, 7]: 104.4 µL⁻¹ and 15.5 µL⁻¹ and 179.2 µL⁻¹ and 372 µL⁻¹ and 72 µL⁻¹ and 79.2 µL⁻¹ | Neutrophils [2, 7]: 261 µL⁻¹ and 232.5 µL⁻¹ and 2284.8 µL⁻¹ and 2790 µL⁻¹ and 216 µL⁻¹ and 158.4 µL⁻¹ | White blood cells [2, 7]: 2610 µL⁻¹ and 1550 µL⁻¹ and 4480 µL⁻¹ and 6200 µL⁻¹ and 1800 µL⁻¹ and 1980 µL⁻¹ | (Ht) ([3]; group mean): 48.6% | Hb ([3]; group mean): 12.3 g/dL | Mean Corpuscula r Hb (MCH) ([3]; group mean): 13.4 pg | Mean Corpuscula r Hb Conc. MCHC ([3]; group mean): 25.3% | Platelet count ([3]; group mean): 661000 µL⁻¹ | Red blood cells ([3]; group mean): 9.16e+06 µL⁻¹ | Red cell distribution width (RDW) ([3]; group mean): 20.7% | Vol. Mean Corp. Vol. (MCV) ([3]; group mean): 53.1 fL | (Ht) ([3]; group median): -48.4% | Hb ([3]; group median): -12.3 g/dL | Platelet count ([3]; group median): -659000 µL⁻¹ | Red blood cells ([3]; group median): -9.13e+06 µL⁻¹ | Red cell distribution width (RDW) ([3]; group median): -20.5% | Vol. Mean Corp. Vol. (MCV) ([3]; group median): -53.1 fL | Estimate Plt ([3]; individual animal, blood smear, first part of cell): A | Aggregate s ([3]; individual animal, blood smear, second part of cell): +++ | (Ht) [3, 7]: 50.1% and 49.5% and 47.8% and 48.7% and 48% and 47.3% | Hb [3, 7]: 12.6 g/dL (2×) and 12 g/dL (2×) and 12.4 g/dL and 12.1 g/dL | Mean Corpuscula r Hb (MCH) [3, 7]: 13.5 Pg (3×) and 13.3 Pg and 13.4 Pg (2×) | Mean Corpuscula r Hb Conc. MCHC [3, 7]: 25.1% (2×) and 25.5% (2×) and 25.2% and 25.4% | Platelet count [3, 7]: 522000 µL⁻¹ and 661000 µL⁻¹ and 656000 µL⁻¹ and 341000 µL⁻¹ and 998000 µL⁻¹ and 790000 µL⁻¹ | Red blood cells [3, 7]: 9.36e+06 µL⁻¹ and 9.34e+06 µL⁻¹ and 9.01e+06 µL⁻¹ and 9.21e+06 µL⁻¹ and 9.04e+06 µL⁻¹ and 8.97e+06 µL⁻¹ | Red cell distribution width (RDW) [3, 7]: 20.4% and 20.6% and 21.4% and 21.8% and 19.6% and 20.1% | Vol. Mean Corp. Vol. (MCV) [3, 7]: 53.5 fL and 53 fL and 53.1 fL (2×) and 52.9 fL and 52.7 fL | time exploring the new object [4]: 59.24 ± 4.58% | food intake (ratio daily food intake / mean body weight) [5]: 99.03±2.03% | number of GFAP positive cells [6]: 31.67±1.12 | number of Iba-1 positive cells [6]: 8.50±0.43
